The values below come from US7141691B2, “Protein-bound derivatives of platinum complexes containing cyclobutane1, 1-dicarboxyllate ligands” (KTB Tumorforschungs GmbH, priority 2003, dated 2006).

The test system of this assay is MaTu (mammary carcinoma). The experiment in a line: Efficacy in vivo, MaTu tumor model in naked mice (change in tumor volume). The settings on record: DACH-Pt-CB-1-Mal 75 and 100 mg/kg i.v. once on day 7, carboplatin 100 mg/kg once on day 7 or 75 mg/kg on days 7 and 14. As for the experimental part:
The invention is elucidated in more detail by the following examples in conjunction with the figures. […] Animals: naked mice Tumor model: MaTu (mammary carcinoma) Treatment: DACH-Pt-CB-1-Mal (75 and 100 mg/kg) and carboplatin (100 mg/kg) once on day 7, carboplatin (75 mg/kg) on each of days 7 and 14; i.v. (carboplatin and derivatives each in 0.15 0.3 ml glucose phosphate buffer pH 6.5).

Take `O=C(CCOCCN1C(=O)C=CC1=O)OC1CC2(C1)C(=O)[O][Pt]1([NH]C3CCCC[C@H]3[NH]1)[O]C2=O` (stereo partly drawn) [DACH-Pt-CB-1-Mal, trans-(R,R/S,S)-cyclohexane-1,2-diaminoplatinum(II)-[3-(6-maleinimido-4-oxacaproyl)cyclobutane-1,1-dicarboxylate]]: the “in vivo efficacy (change in the tumor volume) compared to carboplatin” value is “increased compared to carboplatin”.
